Legend:
Monochoria vaginalis [1] = test: Herbicidal effect test in submerged condition by treatment before weed-generation (1); format: in vivo; conditions: 0.64 g/a, water surface treated on day of sowing, 3 weeks after treatment
Procedure, shortened: (§1)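 Alluvial soil flooded to 4 cm depth; weeds sown and rice seedlings (2.5-leaf stage) transplanted, then wettable powder diluted in water applied to the water surface on sowing day. Greenhouse at 25 to 30° C; herbicidal effect scored 0–5 after 3 weeks (5 = ≥90% kill, 0 = ≤5%).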

Scirpus juncoides [2] = test: as above; format: in vivo; conditions: 0.64 g/a, water surface treated on day of sowing, 3 weeks after treatment
Procedure, shortened: as §1

Echinochloa crus-galli [3] = test: as above; format: in vivo; conditions: 0.64 g/a, water surface treated on day of sowing, 3 weeks after treatment
Procedure, shortened: as §1

[4] = test system: rice transplanted at a depth of 0 cm; test: Herbicidal effect test in submerged condition by treatment before weed-generation (2); format: in vivo, Oryza sativa; conditions: 0.3 g/a; submerged paddy soil pot, seedlings fixed to paddy surface with roots exposed; 3 weeks after treatment
Procedure: (§2) Herbicidal Effect Test in Submerged Condition by Treatment Before Weed-Generation (2)
(§3) Paddy surface soil was placed in a plastic pot of 1/10000 are, water was poured therein and mixed. After seeds of Scirpus juncoides were sown, paddy surface soil was added by 2 cm, and submerged with water, and then seeds of Echinochloa crus-galli, Scirpus juncoides, Monochoria vaginalis, Rotala indica and Lindernia pyxidaria were sown together. In addition, rice seedlings at 2.5th leaf stage were transplanted, and fixed to the paddy surface in a state where the roots were exposed on the other side. On the day when the seeds were sown, the wettable powder of the present invention prepared according to Formulation Example 1 was diluted with water so as to give a predetermined formulation amount, and the surface of the water was treated with the diluted wettable powder. The plants were grown by putting the pot in a green house at 25 to 30° C. The herbicidal effect for each plant was investigated 3 weeks after treatment with the herbicide according to the criteria indicated in Test Example 1.

[5] = test system: transplanted rice (Oryza sativa); test: as above; format: in vivo; conditions: 0.3 g/a; submerged paddy soil pot, rice seedlings at 2.5th leaf stage transplanted; 3 weeks after treatment
Procedure: as §2, §3

Lindernia pyxidaria = test: as above; format: in vivo; conditions: 0.3 g/a; submerged paddy soil pot, water surface treated on day of sowing; 3 weeks after treatment
Procedure: as §2, §3

Monochoria vaginalis [6] = test: as above; format: in vivo; conditions: 0.3 g/a; submerged paddy soil pot, water surface treated on day of sowing; 3 weeks after treatment
Procedure: as §2, §3

Scirpus juncoides [7] = test: as above; format: in vivo; conditions: 0.3 g/a; submerged paddy soil pot, water surface treated on day of sowing; 3 weeks after treatment
Procedure: as §2, §3

Rotala indica = test: as above; format: in vivo; conditions: 0.3 g/a; submerged paddy soil pot, water surface treated on day of sowing; 3 weeks after treatment
Procedure: as §2, §3

Echinochloa crus-galli [8] = test: as above; format: in vivo; conditions: 0.3 g/a; submerged paddy soil pot, water surface treated on day of sowing; 3 weeks after treatment
Procedure: as §2, §3

Monochoria vaginalis [9] = test: Herbicidal effect test in submerged condition by treatment during weed-growth stage (1); format: in vivo; conditions: 0.64 g/a, treated at 1st to 2nd leaf stage, 3 weeks after treatment
Procedure, shortened: (§4)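 Paddy-soil pots flooded to 4 cm water depth were sown and grown in a greenhouse at 25 to 30° C until weeds reached 1st to 2nd leaf stage. A wettable powder diluted in water to a predetermined formulation amount was applied to the water surface. Herbicidal effect was scored 3 weeks after treatment against set criteria.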

Scirpus juncoides [10] = test: as above; format: in vivo; conditions: 0.64 g/a, treated at 1st to 2nd leaf stage, 3 weeks after treatment
Procedure, shortened: as §4

Echinochloa crus-galli [11] = test: as above; format: in vivo; conditions: 0.64 g/a, treated at 1st to 2nd leaf stage, 3 weeks after treatment
Procedure, shortened: as §4

[12] = test system: transplanted rice (Oryza sativa); test: Crop injury test on rice in water leakage condition; format: in vivo; conditions: 0.15 g/a; water leakage 2 cm/day x 3 days; treated on third day after transplantation; 3 weeks after treatment
Procedure: Crop Injury Test on Rice in Water Leakage Condition A mixed soil of alluvial soil and diluvial soil was placed in a plastic pot perforated at the bottom of 1/10000 are, water was poured therein and mixed, and then rice seedlings at 2.5th leaf stage were transplanted. Water leakage treatment was carried out by placing the pot in a plastic vat, and controlling the amount of water in the vat kept at a condition of 2 cm/day×3 days. The pot was put in a green house at 25 to 30° C., on third day after transplantation, the wettable powder of the present invention prepared according to Formulation Example 1 was diluted with water so as to give a predetermined formulation amount, and the surface of the water was treated with the diluted wettable powder. The crop injury on rice was investigated 3 weeks after treatment with the herbicide according to the criteria indicated in Test Example 1.

Row | SMILES | herbicidal effect, C: Monochoria vaginalis (Monochoria vaginalis [1]) | herbicidal effect, B: Scirpus juncoides (Scirpus juncoides [2]) | herbicidal effect, A: Echinochloa crus-galli (Echinochloa crus-galli [3]) | herbicidal effect, g: rice transplanted at a depth of 0 cm [4] | herbicidal effect, a: transplanted rice (Oryza sativa) [5] | herbicidal effect, O: Lindernia pyxidaria (Lindernia pyxidaria) | herbicidal effect, C: Monochoria vaginalis (Monochoria vaginalis [6]) | herbicidal effect, B: Scirpus juncoides (Scirpus juncoides [7]) | herbicidal effect, N: Rotala indica (Rotala indica) | herbicidal effect, A: Echinochloa crus-galli (Echinochloa crus-galli [8]) | herbicidal effect, C: Monochoria vaginalis (Monochoria vaginalis [9]) | herbicidal effect, B: Scirpus juncoides (Scirpus juncoides [10]) | herbicidal effect, A: Echinochloa crus-galli (Echinochloa crus-galli [11]) | crop injury on rice, a: transplanted rice (Oryza sativa) [12]
1 | COc1cc(OC)nc(NC(=O)NS(=O)(=O)c2c(C3=NOCCO3)c(Cl)nn2C)n1 [Comparative Compound 1] | 5 (Herbicidal rate 90% or more (almost complete death)) | 5 (Herbicidal rate 90% or more (almost complete death)) | 5 (Herbicidal rate 90% or more (almost complete death)) | 3 (Herbicidal rate 40% or more and less than 70%) | 0 (Herbicidal rate 5% or less (little effect)) | 5 (Herbicidal rate 90% or more (almost complete death)) | 5 (Herbicidal rate 90% or more (almost complete death)) | 5 (Herbicidal rate 90% or more (almost complete death)) | 5 (Herbicidal rate 90% or more (almost complete death)) | 5 (Herbicidal rate 90% or more (almost complete death)) | 5 (Herbicidal rate 90% or more (almost complete death)) | 5 (Herbicidal rate 90% or more (almost complete death)) | 5 (Herbicidal rate 90% or more (almost complete death)) | 3 (Herbicidal rate 40% or more and less than 70%)
2 | COc1cc(OC)nc(NC(=O)NS(=O)(=O)c2c(C3=NOCCO3)c(C)nn2C)n1 [Comparative Compound 2] | 5 (Herbicidal rate 90% or more (almost complete death)) | 5 (Herbicidal rate 90% or more (almost complete death)) | 5 (Herbicidal rate 90% or more (almost complete death)) | 4 (Herbicidal rate 70% or more and less than 90%) | 4 (Herbicidal rate 70% or more and less than 90%) | 5 (Herbicidal rate 90% or more (almost complete death)) | 5 (Herbicidal rate 90% or more (almost complete death)) | 5 (Herbicidal rate 90% or more (almost complete death)) | 5 (Herbicidal rate 90% or more (almost complete death)) | 5 (Herbicidal rate 90% or more (almost complete death)) | 5 (Herbicidal rate 90% or more (almost complete death)) | 5 (Herbicidal rate 90% or more (almost complete death)) | 5 (Herbicidal rate 90% or more (almost complete death)) | 5 (Herbicidal rate 90% or more (almost complete death))

— patent publication US7709636B2, “Pyrazole sulfonylurea compound and herbicide” (Nissan Chemical Industries, Ltd., priority 2004, dated 2010)
